{"source": "patent US8916573B2", "about": "“Quinazoline-2,4-dione derivatives” (Actelion Pharmaceuticals Ltd., priority 2011, dated 2014)", "test_system": "S. aureus 29213", "test": "Bacterial growth minimal inhibitory concentrations (microdilution, cation-adjusted Mueller-Hinton Broth, CLSI M7-A7)", "type": "cell-based", "settings": "Staphylococcus aureus, 29213; microdilution in cation-adjusted Mueller-Hinton Broth", "method": "Bacterial Growth Minimal Inhibitory Concentrations: Minimal inhibitory concentrations (MICs; mg/l) were determined in cation-adjusted MuellerHinton Broth by a microdilution method following the description given in “Methods for Dilution Antimicrobial Susceptibility Tests for Bacteria that Grow Aerobically”, Approved standard, 7th ed., Clinical and Laboratory Standards Institute (CLSI) Document M7-A7, Wayne, Pa., USA, 2006. Typical antibacterial test results are given in Table 1 hereafter (MIC in mg/l)."}
{"smiles": "Cn1c(=O)n(CC(O)CC[C@@H]2CN(c3ccc4c(n3)NC(=O)CS4)C(=O)O2)c(=O)c2ccccc21", "note": "(mixture of isomers) [Example 50, 3-{(RS)-2-hydroxy-4-[(R)-2-oxo-3-(3-oxo-3,4-dihydro-2H-pyrido[3,2-b][1,4]thiazin-6-yl)-oxazolidin-5-yl]-butyl}-1-methyl-1H-quinazoline-2,4-dione]", "values": [{"measurement": "MIC", "result": 0.125, "unit": "mg/L"}]}
{"smiles": "O=C1CSc2ccc(N3CC(CCCCn4c(=O)[nH]c5ccccc5c4=O)OC3=O)cc2N1", "note": "(racemic) [Example 48, rac-3-{4-[2-oxo-3-(3-oxo-3,4-dihydro-2H-benzo[1,4]thiazin-6-yl)-oxazolidin-5-yl]-butyl}-1H-quinazoline-2,4-dione]", "values": [{"measurement": "MIC", "result": 0.031, "unit": "mg/L"}]}
{"smiles": "Cn1c(=O)n(C[C@H](O)CC[C@@H]2CN(c3ccc4c(c3)NC(=O)CO4)C(=O)O2)c(=O)c2ccccc21", "note": "(racemic) [Example 49, 3-{(RS)-2-hydroxy-4-[(RS)-2-oxo-3-(3-oxo-3,4-dihydro-2H-benzo[1,4]oxazin-6-yl)-oxazolidin-5-yl]-butyl}-1-methyl-1H-quinazoline-2,4-dione]", "values": [{"measurement": "MIC", "result": 1, "unit": "mg/L"}]}
{"smiles": "COC(=O)/C=C/c1ccc2c(=O)n(CCNCCC3CN(c4ccc5c(c4)NC(=O)CS5)C(=O)O3)c(=O)n(C)c2c1", "note": "(racemic) [Example 63, rac-(E)-3-[1-methyl-2,4-dioxo-3-(2-{2-[2-oxo-3-(3-oxo-3,4-dihydro-2H-benzo[1,4]thiazin-6-yl)-oxazolidin-5-yl]-ethylamino}-ethyl)-1,2,3,4-tetrahydro-quinazolin-7-yl]-acrylic acid methyl ester]", "values": [{"measurement": "MIC", "result": 0.031, "unit": "mg/L"}]}
{"smiles": "O=C1CSc2ccc(N3C[C@H](CCCn4c(=O)[nH]c5ccccc5c4=O)OC3=O)cc2N1", "note": "[Example 1, 3-{3-[(S)-2-oxo-3-(3-oxo-3,4-dihydro-2H-benzo[1,4]thiazin-6-yl)-oxazolidin-5-yl]-propyl}-1H-quinazoline-2,4-dione]", "values": [{"measurement": "MIC", "result": "≤ 0.016", "unit": "mg/L"}]}
{"smiles": "Cn1c(=O)n(CCC[C@H]2CN(c3ccc4c(n3)NC(=O)CS4)C(=O)O2)c(=O)c2ccccc21", "note": "[Example 2, 1-methyl-3-{3-[(S)-2-oxo-3-(3-oxo-3,4-dihydro-2H-pyrido[3,2-b][1,4]thiazin-6-yl)-oxazolidin-5-yl]-propyl}-1H-quinazoline-2,4-dione]", "values": [{"measurement": "MIC", "result": "≤ 0.016", "unit": "mg/L"}]}
{"smiles": "Cn1c(=O)n(CCC[C@H]2CN(c3ccc4c(c3)NC(=O)CS4)C(=O)O2)c(=O)c2ccccc21", "note": "[Example 3, 1-methyl-3-{3-[(S)-2-oxo-3-(3-oxo-3,4-dihydro-2H-benzo[1,4]-thiazin-6-yl)-oxazolidin-5-yl]-propyl}-1H-quinazoline-2,4-dione]", "values": [{"measurement": "MIC", "result": "≤ 0.016", "unit": "mg/L"}]}
{"smiles": "CCCn1c(=O)n(CCC[C@@H]2CN(c3ccc4c(c3)NC(=O)CS4)C(=O)O2)c(=O)c2ccccc21", "note": "[Example 4, 3-{3-[(R)-2-oxo-3-(3-oxo-3,4-dihydro-2H-benzo[1,4]-thiazin-6-yl)-oxazolidin-5-yl]-propyl}-1-propyl-1H-quinazoline-2,4-dione]", "values": [{"measurement": "MIC", "result": "≤ 0.25", "unit": "mg/L"}]}
{"smiles": "Cc1cccc2[nH]c(=O)n(CCC[C@@H]3CN(c4ccc5c(c4)NC(=O)CS5)C(=O)O3)c(=O)c12", "note": "[Example 5, 5-methyl-3-{3-[(R)-2-oxo-3-(3-oxo-3,4-dihydro-2H-benzo[1,4]-thiazin-6-yl)-oxazolidin-5-yl]-propyl}-1H-quinazoline-2,4-dione]", "values": [{"measurement": "MIC", "result": "≤ 0.016", "unit": "mg/L"}]}
{"smiles": "Cc1cccc2c1c(=O)n(CCC[C@H]1CN(c3ccc4c(c3)NC(=O)CS4)C(=O)O1)c(=O)n2C", "note": "[Example 6, 1,5-dimethyl-3-{3-[(S)-2-oxo-3-(3-oxo-3,4-dihydro-2H-benzo[1,4]-thiazin-6-yl)-oxazolidin-5-yl]-propyl}-1H-quinazoline-2,4-dione]", "values": [{"measurement": "MIC", "result": 0.031, "unit": "mg/L"}]}
{"smiles": "Cc1cccc2[nH]c(=O)n(CCC[C@H]3CN(c4ccc5c(c4)NC(=O)CS5)C(=O)O3)c(=O)c12", "note": "[Example 7, 5-methyl-3-{3-[(S)-2-oxo-3-(3-oxo-3,4-dihydro-2H-benzo[1,4]-thiazin-6-yl)-oxazolidin-5-yl]-propyl}-1H-quinazoline-2,4-dione]", "values": [{"measurement": "MIC", "result": "≤ 0.016", "unit": "mg/L"}]}
{"smiles": "Cc1cccc2[nH]c(=O)n(CCC[C@H]3CN(c4ccc5c(n4)NC(=O)CS5)C(=O)O3)c(=O)c12", "note": "[Example 8, 5-methyl-3-{3-[(S)-2-oxo-3-(3-oxo-3,4-dihydro-2H-pyrido[3,2-b][1,4]thiazin-6-yl)-oxazolidin-5-yl]-propyl}-1H-quinazoline-2,4-dione]", "values": [{"measurement": "MIC", "result": "≤ 0.016", "unit": "mg/L"}]}
{"smiles": "Cc1cccc2[nH]c(=O)n(CCC[C@@H]3CN(c4ccc5c(n4)NC(=O)CO5)C(=O)O3)c(=O)c12", "note": "[Example 9, 5-methyl-3-{3-[(R)-2-oxo-3-(3-oxo-3,4-dihydro-2H-pyrido[3,2-b][1,4]oxazin-6-yl)-oxazolidin-5-yl]-propyl}-1H-quinazoline-2,4-dione]", "values": [{"measurement": "MIC", "result": 0.031, "unit": "mg/L"}]}
{"smiles": "Cc1ccc2[nH]c(=O)n(CCC[C@@H]3CN(c4ccc5c(c4)NC(=O)CS5)C(=O)O3)c(=O)c2c1", "note": "[Example 10, 6-methyl-3-{3-[(R)-2-oxo-3-(3-oxo-3,4-dihydro-2H-benzo[1,4]thiazin-6-yl)-oxazolidin-5-yl]-propyl}-1H-quinazoline-2,4-dione]", "values": [{"measurement": "MIC", "result": 0.063, "unit": "mg/L"}]}
{"smiles": "Cc1ccc2c(=O)n(CCC[C@@H]3CN(c4ccc5c(c4)NC(=O)CS5)C(=O)O3)c(=O)[nH]c2c1", "note": "[Example 11, 7-methyl-3-{3-[(R)-2-oxo-3-(3-oxo-3,4-dihydro-2H-benzo[1,4]-thiazin-6-yl)-oxazolidin-5-yl]-propyl}-1H-quinazoline-2,4-dione]", "values": [{"measurement": "MIC", "result": 0.063, "unit": "mg/L"}]}
{"smiles": "Cc1cccc2c(=O)n(CCC[C@@H]3CN(c4ccc5c(c4)NC(=O)CS5)C(=O)O3)c(=O)[nH]c12", "note": "[Example 12, 8-methyl-3-{3-[(R)-2-oxo-3-(3-oxo-3,4-dihydro-2H-benzo[1,4]-thiazin-6-yl)-oxazolidin-5-yl]-propyl}-1H-quinazoline-2,4-dione]", "values": [{"measurement": "MIC", "result": "≤ 0.016", "unit": "mg/L"}]}
{"smiles": "Cc1cccc2c(=O)n(CCC[C@H]3CN(c4ccc5c(c4)NC(=O)CS5)C(=O)O3)c(=O)[nH]c12", "note": "[Example 13, 8-methyl-3-{3-[(S)-2-oxo-3-(3-oxo-3,4-dihydro-2H-benzo[1,4]thiazin-6-yl)-oxazolidin-5-yl]-propyl}-1H-quinazoline-2,4-dione]", "values": [{"measurement": "MIC", "result": "≤ 0.016", "unit": "mg/L"}]}
{"smiles": "Cc1cccc2c(=O)n(CCC[C@H]3CN(c4ccc5c(n4)NC(=O)CS5)C(=O)O3)c(=O)[nH]c12", "note": "[Example 14, 8-methyl-3-{3-[(S)-2-oxo-3-(3-oxo-3,4-dihydro-2H-pyrido[3,2-b][1,4]thiazin-6-yl)-oxazolidin-5-yl]-propyl}-1H-quinazoline-2,4-dione]", "values": [{"measurement": "MIC", "result": "≤ 0.016", "unit": "mg/L"}]}
{"smiles": "Cc1cccc2c(=O)n(CCC[C@@H]3CN(c4ccc5c(n4)NC(=O)CO5)C(=O)O3)c(=O)[nH]c12", "note": "[Example 15, 8-methyl-3-{3-[(R)-2-oxo-3-(3-oxo-3,4-dihydro-2H-pyrido[3,2-b][1,4]oxazin-6-yl)-oxazolidin-5-yl]-propyl}-1H-quinazoline-2,4-dione]", "values": [{"measurement": "MIC", "result": 0.063, "unit": "mg/L"}]}
{"smiles": "O=C1CSc2ccc(N3C[C@@H](CCCn4c(=O)[nH]c5cccc(Cl)c5c4=O)OC3=O)cc2N1", "note": "[Example 16, 5-chloro-3-{3-[(R)-2-oxo-3-(3-oxo-3,4-dihydro-2H-benzo[1,4]thiazin-6-yl)-oxazolidin-5-yl]-propyl}-1H-quinazoline-2,4-dione]", "values": [{"measurement": "MIC", "result": 0.031, "unit": "mg/L"}]}
{"smiles": "O=C1CSc2ccc(N3C[C@@H](CCCn4c(=O)[nH]c5cccc(F)c5c4=O)OC3=O)cc2N1", "note": "[Example 17, 5-fluoro-3-{3-[(R)-2-oxo-3-(3-oxo-3,4-dihydro-2H-benzo[1,4]thiazin-6-yl)-oxazolidin-5-yl]-propyl}-1H-quinazoline-2,4-dione]", "values": [{"measurement": "MIC", "result": 0.125, "unit": "mg/L"}]}
